How the values were obtained:
human DNA-PK = target: T1, human DNA-PK (Homo sapiens, UniProt P78527); experiment: Standard DNA-PK assay (p53 peptide phosphorylation); assay type: biochemical; details: read-out: IC50 (nM) DNA-PK Assay
T1 construct: The frozen HeLa cell pellet was thawed at 37° C. and immediately centrifuged; endogenous in cells; host or cells: HeLa S3 cells (ATCC CCL-2.2); Endogenous enzyme purified via S100-2 fraction, Q-Sepharose FF and SP-Sepharose FF (fraction IV)
Method: Reactions were carried out at room temperature. Reactions were started by addition of ATP and stopped by application to phosphocellulose paper. Reaction products spotted onto phosphocellulose paper were washed five times with a total volume of at least 250 mL 10% acetic acid or 150 mM phosphoric acid. The paper was air dried and radioactivity was determined in a Beckman LS6000IC scintillation counter.

[1] = test system: MDA-MB231 (human breast carcinoma) cells; experiment: DNA double-strand break repair assay (pulse field electrophoresis); assay type: cell-based; details: 25 Gy; concentrations which enhanced radiation induced cell killing
Method: To further determine the cellular effect of DNA-PK inhibitors, an assay to measure chromosomal discontinuities was employed. Ionizing radiation induces chromosomal DNA double-strand breaks. Following high dose radiation, chromosomes can be extracted from cells and fractionated by pulse field electrophoresis to distinguish chromosomal fragments from intact larger chromosomes. Using this technique, the activity of DNA-PK inhibitors was measured.
MDA-MB231 (human breast carcinoma) cells were seeded onto T25 flasks with RPMI1640+10% FBS, 2 mM L-glutamine, penicillin G 100 U/ml-streptomycin sulfate 10 μg/ml, 1 mM Na pyruvate. When confluent, media was removed and replaced with media containing DNA-PK inhibitor or vehicle. Cells were incubated at 37° C. for 1 hr in a humidified chamber with 5% CO2. Media then was removed and flasks were filled with ice-cold D-PBS and either: (a) processed immediately; (b) irradiated (25 Gy in a ^137Cs Mark I irradiator at a flux of 335 rad/min) and processed immediately; (c) irradiated and incubated for 2 hr in complete RPMI1640+vehicle at 37° C. (in humidified 5% CO2 atmosphere to allow for DNA repair), or (d) irradiated and incubated for 2 hr in complete RPMI1640+DNA-PK inhibitor compound. […] Chromosomal DNA was visualized with SYBR-Gold (Molecular probes # S-11494) and the fluorescent image quantified on the STORM 860 (Molecular Dynamics).

[2] = test system: human colon carcinoma cell line HCT116; experiment: cells; assay type: cell-based
Method: Cells plated at a density of 5,000 to 20,000 per well in 96-well microtiter plates were grown in RMPI 1640 containing 10% FBS, 100 U/mL penicillin and 100 μg/mL streptomycin, for 18 h at 37° C. in a humidified incubator with 5% CO2. Cells tested included ACHN, 786-0, HCT-116, SW620, SK-MEL-5, SK-MEL-28, A549, H322, OVCAR-3, SK-OV-3, MCF-7, MDA-MB-231, MOLT4, HL60, SNB-19, PC-3. Cells were treated with media containing chemotherapeutic drugs alone or with media containing chemotherapeutic drugs and a DNA-PK inhibitor of the invention, 1-(2-hydroxy-4-morpholin-4-yl-phenyl)-ethanone. Cells were incubated for two days before growth was measured using a tetrazolium dye assay (MTS). Chemotherapeutic drugs included bleomycin etoposide, vinblastine, doxorubicin, paclitaxel, cisplatin, chlorambucil, cyclophosphamide, 5-fluorouracil, cytosine-arabinoside, 6-mercaptoguanine and methotrexate (all purchased from Sigma). The drug concentration necessary to inhibit cell growth to 50% of untreated control cells was defined as the GI50.

[3] = test system: HCT116 cells (human colon carcinoma) xenograft tumors; experiment: Animal tumor model, drug plus γ-radiation; assay type: in vivo, athymic BALB/c (nu/nu) mice; set-up: tumor growth with radiation plus drug: dose or concentration left out as unconfirmed; details: 250 rad plus drug once daily for five days
Method: HCT116 cells (human colon carcinoma) were used to propagate xenograft tumors in 6-8 week old female athymic BALB/c (nu/nu) mice. Mice were maintained in a laminar airflow cabinet under pathogen-free conditions and fed sterile food and water ad libitum. HCT116 cells were grown to subconfluence in McCoy's media supplemented with 10% FBS, 100 U/mL penicillin, 100 μg/mL streptomycin, and 1.5 mM L-glutamine in a 5% CO2 humidified environment. Single cell suspensions were prepared in CMF-PBS (0.9 mM KCl, 2.7 mM KH2PO4, 13.8 mM NaCl, pH 7.5), and cell concentration adjusted to 4×10^7 cells/mL. Mice were inoculated subcutaneously (s.c.) on the right flank or right leg with a total of 4×10^6 cells (100 μL).
Mice were randomized (5 mice/group) into four treatment groups and used when tumors reached a weight of 75 to 100 mg (usually 7 to 11 days post-inoculation). Tumors were measured with vernier calipers and tumor weights were estimated using the empirically-derived formula below. Tumor weight(mg)=tumor length(mm)×tumor width(mm)^2/3.3. […] Tumor size was monitored every other day for the duration of the experiment.

[4] = Pharmacokinetic analysis after subcutaneous administration; assay type: in vivo, mice
[5] = test system: Colon carcinoma cells (HCT116)

CC(=O)c1ccc(N2CCOCC2)cc1O [Example 34, 1-(2-Hydroxy-4-morpholin-4-yl-phenyl)-ethanone]
IC50 (human DNA-PK): 120 nM | chromosomal DNA double-strand break repair [1]: inhibited DNA double-strand break repair | GI50 (bleomycin) reduced ([2]; 100 μM inhibitor, two days): 7 fold | potentiation of growth inhibitory effects of agents that do not induce DNA dsbs ([2]; vinblastine, doxorubicin, paclitaxel, cisplatin, cyclophosphamide, 5-fluorouracil, cytosine-arabinoside, 6-mercaptoguanine, methotrexate): did not potentiate | chlorambucil GI50 reduced ([2]; with inhibitor, two days): 10 fold | etoposide GI50 reduced ([2]; with inhibitor, two days): 10 fold | tumor growth with radiation plus drug [3]: no increase in tumor growth | duration of high plasma concentration [4]: remained high for about one hour | effect of drug alone on cell division [5]: no effect on cell division | enhancement of etoposide LD50 [5]: 15 fold | enhancement of etoposide LD90 [5]: 3 fold | radiation LD50 lower than in the absence of drug ([5]; 200 μM): 4 fold | radiation LD90 lower than without drug ([5]; 200 μM): 4 fold | sensitivity of HCT116 to killing by γ-radiation ([5]; 200 μM): increased the sensitivity | radiation dosage which kills 50% of the cells (LD50) in the presence of drug ([5]; 200 μM, 150 rad without drug): 35 rad | radiation dose that kills 90% of the cells (LD90) with drug ([5]; 200 μM, 410 rad without drug): 100 rad | D0, slope of the survival curve, with drug ([5]; 150 rad without drug): 50 rad
